In the NIST ThermoML archive (doi:10.1016/j.jct.2012.01.008):
Numbers after ± are expanded uncertainties.

Details: Liquid, Vibrating tube method

Row | Structure (SMILES) | mass density (298.15 K, 100 kPa) | mass density (298.15 K, 10000 kPa) | mass density (298.15 K, 15000 kPa) | mass density (298.15 K, 20000 kPa) | mass density (298.15 K, 25000 kPa) | mass density (298.15 K, 30000 kPa) | mass density (298.15 K, 35000 kPa) | mass density (298.15 K, 40000 kPa) | mass density (298.15 K, 45000 kPa) | mass density (298.15 K, 50000 kPa) | mass density (318.15 K, 100 kPa) | mass density (318.15 K, 10000 kPa) | mass density (318.15 K, 15000 kPa) | mass density (318.15 K, 20000 kPa) | mass density (318.15 K, 25000 kPa) | mass density (318.15 K, 30000 kPa) | mass density (318.15 K, 35000 kPa) | mass density (318.15 K, 40000 kPa) | mass density (318.15 K, 45000 kPa) | mass density (318.15 K, 50000 kPa) | further results
1 | CCC[N+]1(C)CCCCC1.O=S(=O)([N-]S(=O)(=O)C(F)(F)F)C(F)(F)F | 1408.9 ± 0.6 kg/m3 | 1415.4 ± 0.8 kg/m3 | 1418.7 ± 0.8 kg/m3 | 1421.9 ± 0.9 kg/m3 | 1424.8 ± 1 kg/m3 | 1427.7 ± 1.1 kg/m3 | 1430.4 ± 1.2 kg/m3 | 1433.2 ± 1.3 kg/m3 | 1436.1 ± 1.4 kg/m3 | 1438.8 ± 1.5 kg/m3 | 1392.1 ± 0.6 kg/m3 | 1398.9 ± 0.7 kg/m3 | 1402.4 ± 0.8 kg/m3 | 1405.4 ± 0.9 kg/m3 | 1408.6 ± 1 kg/m3 | 1411.8 ± 1.1 kg/m3 | 1414.7 ± 1.2 kg/m3 | 1417.6 ± 1.2 kg/m3 | 1420.5 ± 1.3 kg/m3 | 1423.3 ± 1.4 kg/m3 | mass density (348.15 K, 100 kPa): 1366.3 ± 0.6 kg/m3; mass density (348.15 K, 10000 kPa): 1373.5 ± 0.7 kg/m3; mass density (348.15 K, 15000 kPa): 1377.2 ± 0.8 kg/m3; mass density (348.15 K, 20000 kPa): 1380.8 ± 0.9 kg/m3; mass density (348.15 K, 25000 kPa): 1384.1 ± 0.9 kg/m3; mass density (348.15 K, 30000 kPa): 1387.6 ± 1 kg/m3; mass density (348.15 K, 35000 kPa): 1390.7 ± 1.1 kg/m3; mass density (348.15 K, 40000 kPa): 1393.8 ± 1.2 kg/m3; mass density (348.15 K, 45000 kPa): 1397 ± 1.3 kg/m3; mass density (348.15 K, 50000 kPa): 1399.9 ± 1.4 kg/m3
2 | CC(=O)c1ccccc1 [acetophenone] | 1023.4 ± 0.3 kg/m3 | 1029 ± 0.3 kg/m3 | 1031.7 ± 0.3 kg/m3 | 1034.3 ± 0.3 kg/m3 | 1036.8 ± 0.3 kg/m3 | 1039.3 ± 0.4 kg/m3 | 1041.8 ± 0.4 kg/m3 | 1044.4 ± 0.4 kg/m3 | 1046.7 ± 0.4 kg/m3 | 1049 ± 0.4 kg/m3 | 1005.9 ± 0.3 kg/m3 | 1012.2 ± 0.3 kg/m3 | 1015.2 ± 0.3 kg/m3 | 1018.1 ± 0.3 kg/m3 | 1020.9 ± 0.3 kg/m3 | 1023.6 ± 0.3 kg/m3 | 1026.4 ± 0.3 kg/m3 | 1028.8 ± 0.4 kg/m3 | 1031.5 ± 0.4 kg/m3 | 1034 ± 0.4 kg/m3 | mass density (348.15 K, 100 kPa): 979.6 ± 0.3 kg/m3; mass density (348.15 K, 10000 kPa): 987.1 ± 0.3 kg/m3; mass density (348.15 K, 15000 kPa): 990.5 ± 0.3 kg/m3; mass density (348.15 K, 20000 kPa): 993.6 ± 0.3 kg/m3; mass density (348.15 K, 25000 kPa): 996.9 ± 0.3 kg/m3; mass density (348.15 K, 30000 kPa): 1000.1 ± 0.3 kg/m3; mass density (348.15 K, 35000 kPa): 1003.1 ± 0.3 kg/m3; mass density (348.15 K, 40000 kPa): 1006.1 ± 0.3 kg/m3; mass density (348.15 K, 45000 kPa): 1009 ± 0.3 kg/m3; mass density (348.15 K, 50000 kPa): 1011.7 ± 0.3 kg/m3
3 | COc1ccccc1 [anisole] | 989.2 ± 0.3 kg/m3 | 995.6 ± 0.3 kg/m3 | 998.5 ± 0.3 kg/m3 | 1001.4 ± 0.3 kg/m3 | 1004.1 ± 0.3 kg/m3 | 1006.9 ± 0.3 kg/m3 | 1009.7 ± 0.3 kg/m3 | 1012.5 ± 0.3 kg/m3 | 1015.2 ± 0.3 kg/m3 | 1017.5 ± 0.3 kg/m3 | 969.9 ± 0.3 kg/m3 | 977.3 ± 0.3 kg/m3 | 980.4 ± 0.3 kg/m3 | 983.6 ± 0.3 kg/m3 | 986.9 ± 0.3 kg/m3 | 989.8 ± 0.3 kg/m3 | 992.9 ± 0.3 kg/m3 | 995.7 ± 0.3 kg/m3 | 998.6 ± 0.3 kg/m3 | 1001.5 ± 0.3 kg/m3 | mass density (348.15 K, 100 kPa): 941.3 ± 0.3 kg/m3; mass density (348.15 K, 10000 kPa): 949.8 ± 0.3 kg/m3; mass density (348.15 K, 15000 kPa): 953.5 ± 0.3 kg/m3; mass density (348.15 K, 20000 kPa): 957.3 ± 0.3 kg/m3; mass density (348.15 K, 25000 kPa): 961.1 ± 0.3 kg/m3; mass density (348.15 K, 30000 kPa): 964.5 ± 0.3 kg/m3; mass density (348.15 K, 35000 kPa): 967.9 ± 0.3 kg/m3; mass density (348.15 K, 40000 kPa): 971 ± 0.3 kg/m3; mass density (348.15 K, 45000 kPa): 974.5 ± 0.3 kg/m3; mass density (348.15 K, 50000 kPa): 977.8 ± 0.3 kg/m3
